Assay results reported in PubChem BioAssay AID1918994 (Molecular Pharmacology Branch, DTP, NCI, 2023).

Tested on: 292921-168-R-J2-PDC complex spheroid growth
Test: Anticancer human tumor 292921-168-R-J2-PDC patient-derived pancreatic carcinoma cell line growth inhibition [AhR]
Conditions: for IC50: curve of first compound; for viability, T/C: stronger effect = lower value
Summary of the method: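 Complex tumor spheroids co-cultured with HUVEC and human MSC stroma; AhR antagonists tested in combination with standard-of-care and investigational agents. Top concentration at or near clinical Cmax (else 10 microM), half-log dilutions; growth expressed as percent test/control.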

[1] = second compound 0.1 µM, first compound 0.0316 µM
[2] = second compound 0.1 µM, first compound 0.1 µM
[3] = second compound 0.1 µM, first compound 0.316 µM
[4] = second compound 0.1 µM, first compound 1 µM
[5] = second compound 0.1 µM, first compound 3.16 µM
[6] = second compound 0.1 µM, first compound 10 µM
[7] = second compound 0.316 µM, first compound 0.0316 µM
[8] = second compound 0.316 µM, first compound 0.1 µM
[9] = second compound 0.316 µM, first compound 0.316 µM
[10] = second compound 0.316 µM, first compound 1 µM
[11] = second compound 0.316 µM, first compound 3.16 µM
[12] = second compound 0.316 µM, first compound 10 µM
[13] = second compound 1 µM, first compound 0.0316 µM
[14] = second compound 1 µM, first compound 0.1 µM
[15] = second compound 1 µM, first compound 0.316 µM
[16] = second compound 1 µM, first compound 1 µM
[17] = second compound 1 µM, first compound 3.16 µM
[18] = second compound 1 µM, first compound 10 µM
[19] = second compound 3.16 µM, first compound 0.0316 µM
[20] = second compound 3.16 µM, first compound 0.1 µM
[21] = second compound 3.16 µM, first compound 0.316 µM
[22] = second compound 3.16 µM, first compound 1 µM
[23] = second compound 3.16 µM, first compound 3.16 µM
[24] = second compound 3.16 µM, first compound 10 µM
[25] = second compound 10 µM, first compound 0.0316 µM
[26] = second compound 10 µM, first compound 0.1 µM
[27] = second compound 10 µM, first compound 0.316 µM
[28] = second compound 10 µM, first compound 1 µM
[29] = second compound 10 µM, first compound 3.16 µM
[30] = second compound 10 µM, first compound 10 µM
[31] = second compound 0.1 µM, first compound 0.00949 µM
[32] = second compound 0.1 µM, first compound 0.03 µM
[33] = second compound 0.1 µM, first compound 0.0949 µM
[34] = second compound 0.1 µM, first compound 0.3 µM
[35] = second compound 0.316 µM, first compound 0.00949 µM
[36] = second compound 0.316 µM, first compound 0.03 µM
[37] = second compound 0.316 µM, first compound 0.0949 µM
[38] = second compound 0.316 µM, first compound 0.3 µM
[39] = second compound 1 µM, first compound 0.00949 µM
[40] = second compound 1 µM, first compound 0.03 µM
[41] = second compound 1 µM, first compound 0.0949 µM
[42] = second compound 1 µM, first compound 0.3 µM
[43] = second compound 3.16 µM, first compound 0.00949 µM
[44] = second compound 3.16 µM, first compound 0.03 µM
[45] = second compound 3.16 µM, first compound 0.0949 µM
[46] = second compound 3.16 µM, first compound 0.3 µM
[47] = second compound 10 µM, first compound 0.00949 µM
[48] = second compound 10 µM, first compound 0.03 µM
[49] = second compound 10 µM, first compound 0.0949 µM
[50] = second compound 10 µM, first compound 0.3 µM
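Also: spheroids exposed to compounds for seven days after three days of growth.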

CC1(C)CCC(CN2CCN(c3ccc(C(=O)NS(=O)(=O)c4ccc(NCC5CCOCC5)c([N+](=O)[O-])c4)c(Oc4cnc5[nH]ccc5c4)c3)CC2)=C(c2ccc(Cl)cc2)C1 + Cc1ccccc1N=Nc1ccc(NC(=O)c2ccnn2C)c(C)c1
IC50 (second compound 0.1 µM): 6350 nM | IC50 (second compound 0.316 µM): 6290 nM | IC50 (second compound 1 µM): 6070 nM | IC50 (second compound 3.16 µM): 5510 nM | IC50 (second compound 10 µM): 4730 nM | viability, T/C [1]: 91.2% | viability, T/C [2]: 90.5% | viability, T/C [3]: 109% | viability, T/C [4]: 103% | viability, T/C [5]: 112% | viability, T/C [6]: 16.8% | viability, T/C [7]: 88.3% | viability, T/C [8]: 89.3% | viability, T/C [9]: 97.4% | viability, T/C [10]: 96% | viability, T/C [11]: 108% | viability, T/C [12]: 19% | viability, T/C [13]: 96.8% | viability, T/C [14]: 101% | viability, T/C [15]: 77.8% | viability, T/C [16]: 95.1% | viability, T/C [17]: 100% | viability, T/C [18]: 16.2% | viability, T/C [19]: 79.8% | viability, T/C [20]: 77.3% | viability, T/C [21]: 75.3% | viability, T/C [22]: 84% | viability, T/C [23]: 96.4% | viability, T/C [24]: 15.1% | viability, T/C [25]: 65.4% | viability, T/C [26]: 63.5% | viability, T/C [27]: 53.9% | viability, T/C [28]: 72.5% | viability, T/C [29]: 77.6% | viability, T/C [30]: 19.3%

CCN(c1cc(-c2ccc(CN3CCOCC3)cc2)cc(C(=O)NCc2c(C)cc(C)[nH]c2=O)c1C)C1CCOCC1 + Cc1ccccc1N=Nc1ccc(NC(=O)c2ccnn2C)c(C)c1
IC50 (second compound 0.1 µM): > 3000 nM | IC50 (second compound 0.316 µM): > 3000 nM | IC50 (second compound 1 µM): > 3000 nM | IC50 (second compound 3.16 µM): > 3000 nM | IC50 (second compound 10 µM): 1430 nM | viability, T/C [31]: 98.1% | viability, T/C [32]: 90.7% | viability, T/C [33]: 96.7% | viability, T/C [34]: 89.5% | viability, T/C (second compound 0.1 µM, first compound 0.949 µM): 86% | viability, T/C (second compound 0.1 µM, first compound 3 µM): 80.5% | viability, T/C [35]: 93.4% | viability, T/C [36]: 85.2% | viability, T/C [37]: 81.7% | viability, T/C [38]: 80.7% | viability, T/C (second compound 0.316 µM, first compound 0.949 µM): 71.9% | viability, T/C (second compound 0.316 µM, first compound 3 µM): 76.8% | viability, T/C [39]: 82.1% | viability, T/C [40]: 87.8% | viability, T/C [41]: 88.8% | viability, T/C [42]: 79.1% | viability, T/C (second compound 1 µM, first compound 0.949 µM): 85.7% | viability, T/C (second compound 1 µM, first compound 3 µM): 69.5% | viability, T/C [43]: 72.2% | viability, T/C [44]: 74.9% | viability, T/C [45]: 72.5% | viability, T/C [46]: 68.2% | viability, T/C (second compound 3.16 µM, first compound 0.949 µM): 67.3% | viability, T/C (second compound 3.16 µM, first compound 3 µM): 58.8% | viability, T/C [47]: 57% | viability, T/C [48]: 58.2% | viability, T/C [49]: 51% | viability, T/C [50]: 57.4% | viability, T/C (second compound 10 µM, first compound 0.949 µM): 53% | viability, T/C (second compound 10 µM, first compound 3 µM): 44.8%

Cn1ncnc1C1c2n[nH]c(=O)c3cc(F)cc(c23)NC1c1ccc(F)cc1 (stereo not given) + Cc1ccccc1N=Nc1ccc(NC(=O)c2ccnn2C)c(C)c1
IC50 (second compound 0.1 µM): > 100 nM | IC50 (second compound 0.316 µM): > 100 nM | IC50 (second compound 1 µM): > 100 nM | IC50 (second compound 3.16 µM): > 100 nM | IC50 (second compound 10 µM): > 100 nM | viability, T/C (second compound 0.1 µM, first compound 0.000316 µM): 96.1% | viability, T/C (second compound 0.1 µM, first compound 0.001 µM): 83% | viability, T/C (second compound 0.1 µM, first compound 0.00316 µM): 83.2% | viability, T/C (second compound 0.1 µM, first compound 0.01 µM): 85.7% | viability, T/C [1]: 87.8% | viability, T/C [2]: 82.6% | viability, T/C (second compound 0.316 µM, first compound 0.000316 µM): 90.9% | viability, T/C (second compound 0.316 µM, first compound 0.001 µM): 76.6% | viability, T/C (second compound 0.316 µM, first compound 0.00316 µM): 86.4% | viability, T/C (second compound 0.316 µM, first compound 0.01 µM): 74.8% | viability, T/C [7]: 73.8% | viability, T/C [8]: 86.2% | viability, T/C (second compound 1 µM, first compound 0.000316 µM): 78.6% | viability, T/C (second compound 1 µM, first compound 0.001 µM): 81% | viability, T/C (second compound 1 µM, first compound 0.00316 µM): 80.3% | viability, T/C (second compound 1 µM, first compound 0.01 µM): 81.3% | viability, T/C [13]: 87.8% | viability, T/C [14]: 74.1% | viability, T/C (second compound 3.16 µM, first compound 0.000316 µM): 80.9% | viability, T/C (second compound 3.16 µM, first compound 0.001 µM): 76.2% | viability, T/C (second compound 3.16 µM, first compound 0.00316 µM): 76.3% | viability, T/C (second compound 3.16 µM, first compound 0.01 µM): 75.1% | viability, T/C [19]: 72.5% | viability, T/C [20]: 59.6% | viability, T/C (second compound 10 µM, first compound 0.000316 µM): 64% | viability, T/C (second compound 10 µM, first compound 0.001 µM): 68.5% | viability, T/C (second compound 10 µM, first compound 0.00316 µM): 51.8% | viability, T/C (second compound 10 µM, first compound 0.01 µM): 61.7% | viability, T/C [25]: 53.3% | viability, T/C [26]: 52.8%

NS(=O)(=O)OCC1CC(n2ccc3c(NC4CCc5ccccc54)ncnc32)CC1O (stereo not given) + Cc1ccccc1N=Nc1ccc(NC(=O)c2ccnn2C)c(C)c1
IC50 (second compound 0.1 µM): 189 nM | IC50 (second compound 0.316 µM): 168 nM | IC50 (second compound 1 µM): 161 nM | IC50 (second compound 3.16 µM): 138 nM | IC50 (second compound 10 µM): 115 nM | viability, T/C [1]: 122% | viability, T/C [2]: 88.3% | viability, T/C [3]: 19.3% | viability, T/C [4]: 4.4% | viability, T/C [5]: 3.09% | viability, T/C [6]: 2.81% | viability, T/C [7]: 128% | viability, T/C [8]: 77.9% | viability, T/C [9]: 15.7% | viability, T/C [10]: 4.5% | viability, T/C [11]: 4.78% | viability, T/C [12]: 3.59% | viability, T/C [13]: 111% | viability, T/C [14]: 73.6% | viability, T/C [15]: 16.2% | viability, T/C [16]: 6.04% | viability, T/C [17]: 3.96% | viability, T/C [18]: 5.05% | viability, T/C [19]: 100% | viability, T/C [20]: 64% | viability, T/C [21]: 13.8% | viability, T/C [22]: 4.58% | viability, T/C [23]: 8.31% | viability, T/C [24]: 2.91% | viability, T/C [25]: 88.9% | viability, T/C [26]: 55.2% | viability, T/C [27]: 13.7% | viability, T/C [28]: 5.55% | viability, T/C [29]: 3.67% | viability, T/C [30]: 2.58%

Nc1ncn(C2CC(O)C(CO)S2)c(=O)n1 (stereo not given) + Cc1ccccc1N=Nc1ccc(NC(=O)c2ccnn2C)c(C)c1
IC50 (second compound 0.1 µM): > 300 nM | IC50 (second compound 0.316 µM): > 300 nM | IC50 (second compound 1 µM): > 300 nM | IC50 (second compound 3.16 µM): > 300 nM | IC50 (second compound 10 µM): > 300 nM | viability, T/C (second compound 0.1 µM, first compound 0.000949 µM): 96.1% | viability, T/C (second compound 0.1 µM, first compound 0.003 µM): 91.2% | viability, T/C [31]: 86.3% | viability, T/C [32]: 93% | viability, T/C [33]: 91.1% | viability, T/C [34]: 77.5% | viability, T/C (second compound 0.316 µM, first compound 0.000949 µM): 87.6% | viability, T/C (second compound 0.316 µM, first compound 0.003 µM): 92.3% | viability, T/C [35]: 93.3% | viability, T/C [36]: 81.5% | viability, T/C [37]: 82.6% | viability, T/C [38]: 76.6% | viability, T/C (second compound 1 µM, first compound 0.000949 µM): 83.6% | viability, T/C (second compound 1 µM, first compound 0.003 µM): 85% | viability, T/C [39]: 80.7% | viability, T/C [40]: 83.8% | viability, T/C [41]: 90% | viability, T/C [42]: 78.5% | viability, T/C (second compound 3.16 µM, first compound 0.000949 µM): 68.6% | viability, T/C (second compound 3.16 µM, first compound 0.003 µM): 66.1% | viability, T/C [43]: 72.4% | viability, T/C [44]: 79.9% | viability, T/C [45]: 82.2% | viability, T/C [46]: 64.1% | viability, T/C (second compound 10 µM, first compound 0.000949 µM): 64% | viability, T/C (second compound 10 µM, first compound 0.003 µM): 56.1% | viability, T/C [47]: 59% | viability, T/C [48]: 62.7% | viability, T/C [49]: 61.6% | viability, T/C [50]: 57.1%
